“And” between values parts separate entries of the source, which are not always exact repeats. Identical values can stand only once.
Experiments:
[1] = molecular target: CB1 receptors (Rattus norvegicus, UniProt P20272); assay: CB1 receptor internalization in HEK293 cells stably expressing CB1; assay type: cell-based; settings: for plateau / maximal internalization in time course: 100 nM drug, up to 6 hours; for plateau / maximal internalization in time course / maximal internalization (Emax): mean ± S.E.M.; for maximal internalization (Emax) / EC50: 2 hour treatment; for maximal internalization (Emax): at 1 μM; for EC50: read-out: EC50 of CB1 internalization, mean (95% CI)
Sequence of CB1 receptors (Rattus norvegicus, UniProt P20272) (P20272 whole entry): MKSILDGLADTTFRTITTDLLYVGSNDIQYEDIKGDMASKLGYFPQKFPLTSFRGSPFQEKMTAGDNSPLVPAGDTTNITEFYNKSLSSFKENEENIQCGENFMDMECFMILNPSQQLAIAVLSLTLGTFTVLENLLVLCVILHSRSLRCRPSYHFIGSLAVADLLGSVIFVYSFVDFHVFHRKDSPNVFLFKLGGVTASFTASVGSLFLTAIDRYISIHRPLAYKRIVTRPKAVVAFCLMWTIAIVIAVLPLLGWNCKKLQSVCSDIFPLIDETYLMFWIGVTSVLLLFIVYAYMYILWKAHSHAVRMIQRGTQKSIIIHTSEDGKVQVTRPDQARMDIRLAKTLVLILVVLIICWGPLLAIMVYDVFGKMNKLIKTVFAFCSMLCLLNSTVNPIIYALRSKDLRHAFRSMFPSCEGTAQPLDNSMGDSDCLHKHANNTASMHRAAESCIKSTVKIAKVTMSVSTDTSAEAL

[2] = molecular target: T1, CB1 receptors (Mus musculus, UniProt P47746); assay: Inhibition of EPSCs; assay type: cell-based; settings: for maximal suppression of EPSC, % of baseline: at 1 μM, mean ± S.E.M.; for IC50: read-out: IC50 of EPSC suppression, autaptic hippocampal neurons, mean (95% CI)
T1 sequence (P47746 whole entry): as the sequence (P20272 whole entry) above, with E95D counted along it

[3] = molecular target: T1, CB1 receptors; settings: at 1 μM; ref Atwood et al., 2010; cited from earlier work

| Compound | plateau / maximal internalization in time course [1] | maximal internalization (Emax) [1] | EC50 [1] [nM] | maximal suppression of EPSC, % of baseline [2] | IC50 [2] [nM] | maximal decrease of EPSC magnitude [3] [%] |
| --- | --- | --- | --- | --- | --- | --- |
| CCCCCCCC(C)(C)c1ccc([C@H]2CCC[C@@H](O)C2)c(O)c1 [CP47,497-C8] | 51.4 ± 2.2 % of basal surface levels | 52.7 ± 4.3 % of basal surface levels | 4.4 | 51.6 ± 8.0 % of baseline and 51.6 % of baseline | 15.4 | – |
| CCCCCn1cc(C(=O)c2cccc3ccccc23)c2ccccc21 [JWH018] | 50.7 ± 2.6 % of basal surface levels | 45.2 ± 2.0 % of basal surface levels | 10.1 | – | – | 48.0 |
| CCCCn1cc(C(=O)c2cccc3ccccc23)c2ccccc21 [JWH073] | 57.5 ± 3.1 % of basal surface levels | 61.2 ± 2.5 % of basal surface levels | 45.6 | 31.5 ± 4.0 % of baseline | 49.4 | – |
| CCCCCCCC(C)(C)c1ccc([C@H]2CCC[C@@H](O)C2)c(O)c1 [cis-CP47,497-C8] | 48.4 ± 2.4 % of basal surface levels | 53.8 ± 2.4 % of basal surface levels | 1.9 | – | – | – |
| CCCCCCCC(C)(C)c1ccc([C@@H]2CCC[C@@H](O)C2)c(O)c1 [trans-CP47,497-C8] | 47.7 ± 3.1 % of basal surface levels | 54.9 ± 3.7 % of basal surface levels | 2.7 | – | – | – |

Source: article PMC3094488 (European journal of pharmacology, 2011)
